Data on 8 compounds can be found in PubChem BioAssay (NCI).

SMILES strings stand for the structures.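 Interpolation was linear, between the two tested concentrations surrounding the appropriate level; five concentrations were tested over 48 hours in 96-well plates. Here, GI50 denotes the concentration required for 50% inhibition of growth. TGI: concentration producing complete growth inhibition.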

Among the test systems are SK-MEL-28 melanoma; OVCAR-8 ovarian; CCRF-CEM leukemia; CAKI-1 renal; OVCAR-4 ovarian; TK-10 renal; A498 renal; MDA-MB-435; HL-60(TB) leukemia; SNB-19 CNS.
What all share (test): NCI anticancer screen, dose series, 48 h

As for `ClC1=C(Cl)C(Cl)=C(Cl)C1=C/C=C/c1ccccc1`, the GI50 was 0.249 µM with SK-MEL-28 melanoma; 0.266 µM with OVCAR-8 ovarian; 0.306 µM in the assay with CCRF-CEM leukemia; 0.198 µM with CAKI-1 renal; 0.337 µM with OVCAR-4 ovarian; 0.562 µM with TK-10 renal. Further, the GI50 in the assay with A498 renal is 0.59 µM; with MDA-MB-435 it was 0.302 µM; in the assay with HL-60(TB) leukemia, 0.329 µM; with SNB-19 CNS, 0.59 µM. The TGI in the assay with SK-MEL-28 melanoma is 0.597 µM; with OVCAR-8 ovarian, 1.92 µM; in the assay on CAKI-1 renal, 0.561 µM; in the assay with OVCAR-4 ovarian it was 19.8 µM; in the assay on TK-10 renal it was 2.04 µM; in the assay on A498 renal, 1.22 µM. The TGI is 0.977 µM in the assay on MDA-MB-435 and 2.44 µM in the assay on SNB-19 CNS.
As to `COc1ccc(C(=O)c2ccc(OC)c(OC)c2OC)cc1`, the GI50 in the assay with SK-MEL-28 melanoma was 4.51 µM; with OVCAR-8 ovarian, 3 µM; with CCRF-CEM leukemia it was 1.46 µM; in the assay with CAKI-1 renal, 1.21 µM; in the assay with OVCAR-4 ovarian it was 7.08 µM; with TK-10 renal it was 2.85 µM. Also, the GI50 with A498 renal is 1.08 µM; in the assay with MDA-MB-435, 0.2 µM; in the assay on HL-60(TB) leukemia it was 0.464 µM; in the assay with SNB-19 CNS it was 4.87 µM. Further, the TGI in the assay on SK-MEL-28 melanoma, with OVCAR-8 ovarian, with CCRF-CEM leukemia, in the assay on CAKI-1 renal, in the assay with OVCAR-4 ovarian and in the assay on TK-10 renal was greater than 100 µM each time. The TGI in the assay with A498 renal was 9.39 µM; with MDA-MB-435 it was 0.525 µM; in the assay with HL-60(TB) leukemia, greater than 100 µM; in the assay with SNB-19 CNS, greater than 100 µM.
For the compound `COc1ccc(Nn2c(SCC(=O)Nc3nc(-c4ccc(Cl)cc4)cs3)nc(C)c2C)cc1`, the GI50 was 18 µM in the assay on SK-MEL-28 melanoma; 4.82 µM in the assay with OVCAR-8 ovarian; 3.82 µM with CCRF-CEM leukemia; 2.16 µM in the assay with CAKI-1 renal; 4.02 µM with OVCAR-4 ovarian; 14.8 µM with TK-10 renal. For the same compound, the GI50 with A498 renal was 2.22 µM; with MDA-MB-435, 3.22 µM; in the assay on HL-60(TB) leukemia, 2.24 µM; with SNB-19 CNS, 6.19 µM. Further, the TGI is greater than 100 µM in the assay on SK-MEL-28 melanoma; greater than 100 µM in the assay on OVCAR-8 ovarian; greater than 100 µM in the assay on CCRF-CEM leukemia; greater than 100 µM in the assay on CAKI-1 renal; greater than 100 µM with OVCAR-4 ovarian; 80.9 µM in the assay with TK-10 renal. Also, the TGI was 56.5 µM in the assay with A498 renal, greater than 100 µM in the assay with MDA-MB-435, 59.1 µM in the assay with HL-60(TB) leukemia and greater than 100 µM in the assay with SNB-19 CNS.
With `CCNCC(=O)O[C@]1(CC)C(=O)OCc2c1cc1n(c2=O)Cc2cc3ccccc3nc2-1`, the TGI is greater than 55.5 µM in the assay with SK-MEL-28 melanoma; 5.68 µM in the assay on OVCAR-8 ovarian; 0.418 µM with CCRF-CEM leukemia; 4.65 µM in the assay with CAKI-1 renal; 8.84 µM in the assay on OVCAR-4 ovarian; 99 µM with TK-10 renal. For the same compound, the TGI in the assay on A498 renal is 4.4 µM; in the assay with MDA-MB-435, 7.82 µM; in the assay with HL-60(TB) leukemia, 0.849 µM; with SNB-19 CNS, greater than 100 µM.
Consider `CCCCCCCCCCCCCCCCCC1=NCCN1CS(=O)(=O)O`, for which the GI50 with SK-MEL-28 melanoma was 19.2 µM; with OVCAR-8 ovarian, 20.4 µM; with CCRF-CEM leukemia, 3.96 µM; in the assay on CAKI-1 renal, 9.3 µM; with OVCAR-4 ovarian, 14.9 µM; with TK-10 renal, 18.6 µM. Besides, the GI50 with A498 renal was 14.8 µM; with MDA-MB-435, 2.84 µM; in the assay with HL-60(TB) leukemia it was 14.3 µM; with SNB-19 CNS, 17.9 µM. Also, the TGI in the assay with SK-MEL-28 melanoma was 34.7 µM; with OVCAR-8 ovarian, 48.9 µM; in the assay on CCRF-CEM leukemia, greater than 100 µM; in the assay on CAKI-1 renal it was 22.6 µM; in the assay on OVCAR-4 ovarian, 33 µM; in the assay with TK-10 renal, 35.4 µM. In addition, the TGI is 31 µM in the assay on A498 renal, 9.82 µM with MDA-MB-435, 39.9 µM with HL-60(TB) leukemia and 40.9 µM in the assay on SNB-19 CNS.
In the case of `CC(=O)N1CC(Nc2ccc(OC(F)(F)F)cc2)=CC1=O`, the GI50 was 7.29 µM with SK-MEL-28 melanoma; 3.63 µM with OVCAR-8 ovarian; 2.52 µM in the assay with CCRF-CEM leukemia; 3.05 µM with CAKI-1 renal; 4.84 µM in the assay on OVCAR-4 ovarian; 5.85 µM with TK-10 renal. The GI50 with A498 renal was 1.25 µM; in the assay on MDA-MB-435, 0.195 µM; with HL-60(TB) leukemia, 0.842 µM; in the assay on SNB-19 CNS, 3.22 µM. In addition, the TGI with SK-MEL-28 melanoma, in the assay with OVCAR-8 ovarian, with CCRF-CEM leukemia, with CAKI-1 renal, with OVCAR-4 ovarian and in the assay on TK-10 renal was greater than 100 µM throughout. For the same compound, the TGI with A498 renal is 24.2 µM; with MDA-MB-435, 0.439 µM; in the assay on HL-60(TB) leukemia, greater than 100 µM; in the assay with SNB-19 CNS, greater than 100 µM.
`COc1ccc(NC(=O)n2nc(N)c3ccccc32)cc1OC`: the GI50 in the assay with SK-MEL-28 melanoma is greater than 100 µM; with OVCAR-8 ovarian it was 39.7 µM; in the assay on CCRF-CEM leukemia, 36.7 µM; in the assay with CAKI-1 renal it was greater than 100 µM; with OVCAR-4 ovarian, 63.2 µM; in the assay with TK-10 renal, 92.4 µM. The GI50 was 30.3 µM in the assay on A498 renal, greater than 100 µM in the assay with MDA-MB-435, 27.9 µM in the assay on HL-60(TB) leukemia and greater than 100 µM in the assay with SNB-19 CNS. Further, the TGI in the assay on SK-MEL-28 melanoma, in the assay with OVCAR-8 ovarian, with CCRF-CEM leukemia, with CAKI-1 renal, in the assay with OVCAR-4 ovarian and with TK-10 renal was greater than 100 µM in each case. In addition, the TGI in the assay on A498 renal is 85.4 µM; in the assay with MDA-MB-435, greater than 100 µM; in the assay with HL-60(TB) leukemia it was greater than 100 µM; in the assay on SNB-19 CNS, greater than 100 µM.
As for `COc1cc2c(cc1OCCOS(C)(=O)=O)N=C[C@@H]1CCCN1C2=O`, the TGI in the assay on SK-MEL-28 melanoma is 61.5 µM; in the assay with OVCAR-8 ovarian, greater than 100 µM; in the assay with CCRF-CEM leukemia, 54.9 µM; with CAKI-1 renal, 32.1 µM; in the assay with OVCAR-4 ovarian it was 58.5 µM; with TK-10 renal, 33.2 µM. Besides, the TGI in the assay with A498 renal was 48.7 µM; in the assay on MDA-MB-435, 37.7 µM; in the assay on HL-60(TB) leukemia, 55.9 µM; in the assay on SNB-19 CNS, greater than 100 µM. Further, the GI50 with CCRF-CEM leukemia was 14.5 µM; with CAKI-1 renal, 17.7 µM; with TK-10 renal, 18.1 µM; in the assay with A498 renal, 17.1 µM.
